From paper PMC5407577, “Functional and genetic evidence that nucleoside transport is highly conserved in Leishmania species: Implications for pyrimidine-based chemotherapy” (International Journal for Parasitology: Drugs and Drug …, 2017)
Read-outs that look alike come from different tables or passages of the source.

Columns and labels:
[1] = system: L. mexicana promastigotes WT; test: Alamar blue drug sensitivity assay, L. mexicana WT; type: cell-based, Leishmania mexicana; settings: Leishmania mexicana, 72 h, WT promastigotes, 72 h + 48 h with dye, n ≥ 4
Description: (§1) Sensitivity assays of Leishmania strains to various drugs using the viability dye resazurin (Alamar Blue) (Sigma-Aldrich) were performed using a protocol adapted from [Räz et al. (1997)], as described ([Al-Salabi et al., 2003], [Gould et al., 2008]). Pentamidine and diminazene were used as non-nucleoside controls and were obtained from Sigma-Aldrich, as were many purines, pyrimidines, and analogs, with the exceptions of 2-thiouridine and 4-thiouridine (TriLink BioTechnologies, San Diego, CA); 5′-deoxyuridine, and 2′-3′-dideoxyuridine (Carbosynth, Compton, UK); 5-fluoro-2′-deoxyuridine (Fluka); and 2-thiouracil (ICN Biomedicals, Cambridge, UK). A preliminary promastigote culture was diluted to a density of 2 × 10^6 cells/ml, of which 100 μl was added to wells of 96-well plates pre-loaded with 100 μl of doubling dilutions of test compounds, resulting in a final density of 1 × 10^6 cells/ml; the dilutions were over 2 rows of the plate (23 concentrations), with the last well containing only medium and serving as the no-drug control. The plates were incubated at 25 °C for 72 h before adding the Alamar Blue dye (20 μl of 12.5 mg resazurin sodium salt (Sigma) in 100 ml phosphate buffered saline (PBS; pH 7.4)). Since Leishmania parasites metabolize the Alamar Blue dye slower than trypanosomes ([Gould et al., 2008]), the cells were incubated with the dye for a further period of 48 h before measuring the fluorescence, using a FLUOstar Optima fluorimeter (BMG Labtech) at wavelengths of 544 nm for excitation and 620 nm for emission. […] Each experiment was performed independently at least 4 times; statistical significance was determined using Student's unpaired t-test.

[2] = system: L. major promastigotes WT; test: Alamar blue drug sensitivity assay, L. major WT; type: cell-based, Leishmania major; settings: Leishmania major, WT promastigotes, 72 h + 48 h with dye, n ≥ 4
Description: as §1

LmajNT1 = test: [3H]-thymidine uptake by L. major promastigotes; type: cell-based, Leishmania major
Description: (§2) Using the standard uptake technique as described for T. brucei and Leishmania species ([Wallace et al., 2002], [Al-Salabi and De Koning, 2005], [Gudin et al., 2006]), the dose- or time-dependent uptake of radiolabeled permeants was investigated.
(§3) Briefly, cells in the mid-to-late logarithmic stage of growth were harvested by centrifugation for 10 min at 1500×g. The cells were washed twice with transport assay buffer (AB: 33 mM HEPES, 98 mM NaCl, 4.6 mM KCl, 0.55 mM CaCl2, 0.07 mM MgSO4, 5.8 mM NaH2PO4, 0.3 mM MgCl2, 23 mM NaHCO3, 14 mM glucose, pH 7.3), resuspended at a density of 10^8 cells ml^−1 in AB, and left for 20–30 min at room temperature to recover from centrifugation stress. One hundred microliters of cell suspension was incubated at ambient temperature for a predetermined time with 100 μl radiolabeled test compound, in the presence or absence of unlabeled substrate or other competitive inhibitors. The incubation was terminated by the addition of ice-cold stop solution (AB containing saturating levels, usually 10 mM, of unlabeled permeant) and centrifugation through oil for 1 min at 13,000 × g. […] Radioactivity was determined by liquid scintillation counting in a Beckman LS6000 TA scintillation counter. Saturation data, inhibition data, and time courses were plotted to equations for linear or non-linear regression (hyperbolic or sigmoid curves), as appropriate. All experiments were performed in triplicate and on at least three independent occasions.
Subsequent experiments were performed with a 5 min incubation time.

Lmaj5FURes = test: microbe, parasite or virus in culture; type: cell-based, Leishmania major; settings: for EC50: Leishmania major; for RF (Resistance Factor = IC50 (resistant clone)/IC50 (WT)): Lmaj5FURes vs L. major WT
Description: as §1

Lmaj5F2′dURes = test: microbe, parasite or virus in culture; type: cell-based, Leishmania major; settings: for EC50: Leishmania major; for RF (Resistance Factor = IC50 (resistant clone)/IC50 (WT)): Lmaj5F2′dURes vs L. major WT
Description: as §1

Lmex5FURes = test: microbe, parasite or virus in culture; type: cell-based, Leishmania mexicana; settings: for EC50: Leishmania mexicana; for RF (Resistance Factor = IC50 (resistant clone)/IC50 (WT)): Lmex5FURes vs L. mexicana WT
Description: as §1

Lmex5F2′dURes = test: microbe, parasite or virus in culture; type: cell-based, Leishmania mexicana; settings: for EC50: Leishmania mexicana; for RF (Resistance Factor = IC50 (resistant clone)/IC50 (WT)): Lmex5F2′dURes vs L. mexicana WT
Description: as §1

LmexNT1 [3] = type: cell-based, Leishmania mexicana
Description: as §2, §3
L. donovani is known to express one pyrimidine nucleoside transporter, LdNT1, which also transports adenosine ([Vasudevan et al., 1998], [De Koning et al., 2005]). In order to investigate whether this model held true for L. mexicana, the uptake of [^3H]-thymidine was studied. […] Care was taken throughout this study that whenever inhibition constants (Ki) or Michaelis-Menten constants (Km) were determined the conditions used had been verified to be well within the linear range of uptake.

LmexNT1 [4] = type: cell-based, Leishmania mexicana; remark: listed apart in the source
Description: as §2, §3

LmexNT1 [5] = test: [3H]-adenosine uptake by L. mexicana promastigotes; type: cell-based, Leishmania mexicana; settings: inhibition of 0.05 μM [3H]-adenosine uptake; read-out: Ki
Source text: Using the standard uptake technique as described for T. brucei and Leishmania species ([Wallace et al., 2002], [Al-Salabi and De Koning, 2005], [Gudin et al., 2006]), the dose- or time-dependent uptake of radiolabeled permeants was investigated. The following radiolabels and specific activities were used: [^3H]-thymidine (Perkin Elmer; 56.6 Ci/mmol); [^3H]-adenosine (American Radiolabeled Chemicals UK; 40 Ci/mmol); [^3H]-uridine (American Radiolabeled Chemicals UK; 30 Ci/mmol); [^3H]-uracil (Perkin Elmer; 24.8 Ci/mmol); [^3H]-inosine (American Radiolabeled Chemicals UK; 20 Ci/mmol); [^3H]-5-fluorouracil (Moravek; 20 Ci/mmol).
as §3
We next investigated the transport of [^3H]-adenosine in L. mexicana promastigotes, which according to the efficient inhibition of [^3H]-thymidine by adenosine, should be taken up with high affinity.

LmexUU1 = type: cell-based, Leishmania mexicana
Description: as §2, §3

[6] = inhibition of 0.25 μM [3H]-thymidine uptake (total LmajNT1.1 + LmajNT1.2), 5 min
[7] = inhibition of [3H]-uracil uptake, 4 min

Compound: O=c1ccn([C@@H]2O[C@H](CO)[C@@H](O)[C@H]2O)c(=S)[nH]1 [2-thiouridine]
- EC50 [1]: > 5000 µM
- EC50 ([2]; 72 h): > 5000 µM
- Ki (LmajNT1): 765 ± 68 µM

Compound: O=c1ccn([C@H]2CC[C@@H](CO)O2)c(=O)[nH]1 [2′,3′-dideoxyuridine]
- EC50 [1]: > 5000 µM
- EC50 ([2]; 72 h): > 5000 µM
- Ki (LmajNT1): > 2500 µM

Compound: O=C1C=CN([C@@H]2O[C@H](CO)[C@@H](O)[C@H]2O)C(=O)C1 [3-deazauridine]
- Ki (LmajNT1; [6]): 3670 ± 420 µM

Compound: Cc1cn([C@H]2CC[C@@H](CO)O2)c(=O)[nH]c1=O [3′-deoxythymidine]
- Ki (LmajNT1; [6]): 1250 ± 44.5 µM

Compound: O=c1ccn([C@@H]2O[C@H](CO)C[C@H]2O)c(=O)[nH]1 [3′-deoxyuridine]
- EC50 [1]: > 5000 µM
- EC50 ([2]; 72 h): > 5000 µM

Compound: O=c1[nH]c(=S)ccn1[C@@H]1O[C@H](CO)[C@@H](O)[C@H]1O [4-thiouridine]
- EC50 [1]: > 5000 µM
- EC50 ([2]; 72 h): > 5000 µM
- Ki (LmajNT1; [6]): 69 ± 18.1 µM

Compound: O=c1[nH]c(=O)n([C@H]2C[C@H](O)[C@@H](CO)O2)cc1Br [5-bromo-2′-deoxyuridine]
- EC50 [1]: > 5000 µM
- EC50 ([2]; 72 h): > 5000 µM

Compound: O=c1[nH]cc(Br)c(=O)[nH]1 [5-bromouracil]
- EC50 [1]: > 5000 µM
- EC50 ([2]; 72 h): > 5000 µM

Compound: O=c1[nH]c(=O)n([C@@H]2O[C@H](CO)[C@@H](O)[C@H]2O)cc1Br [5-bromouridine]
- EC50 [1]: > 5000 µM
- EC50 ([2]; 72 h): > 5000 µM

Compound: O=c1[nH]c(=O)n([C@H]2C[C@H](O)[C@@H](CO)O2)cc1Cl [5-chloro-2′-deoxyuridine]
- EC50 [1]: > 5000 µM
- EC50 ([2]; 72 h): > 5000 µM

Compound: O=c1[nH]c(=O)n([C@@H]2O[C@H](CO)[C@@H](O)[C@H]2O)cc1Cl [5-chlorouridine]
- EC50 [1]: > 5000 µM
- EC50 ([2]; 72 h): > 5000 µM

Compound: C[C@H]1O[C@@H](n2cc(F)c(=O)[nH]c2=O)[C@H](O)[C@@H]1O [5-fluoro,5′-deoxyuridine]
- Ki (LmajNT1; [6]): 168 ± 32 µM

Compound: Nc1nc(=O)n([C@@H]2O[C@H](CO)[C@@H](O)[C@H]2O)cc1F [5-fluorocytidine]
- EC50 [1]: > 5000 µM
- EC50 ([2]; 72 h): > 5000 µM

Compound: Nc1nc(=O)[nH]cc1F [5-fluorocytosine]
- EC50 [1]: > 5000 µM
- EC50 ([2]; 72 h): > 5000 µM

Compound: O=c1[nH]c(=O)n([C@H]2C[C@H](O)[C@@H](CO)O2)cc1I [5-iodo-2′-deoxyuridine]
- EC50 [1]: > 5000 µM
- EC50 ([2]; 72 h): > 5000 µM

Compound: O=c1[nH]c(=O)n([C@@H]2O[C@H](CO)[C@@H](O)[C@H]2O)cc1I [5-iodouridine]
- EC50 [1]: > 5000 µM
- EC50 ([2]; 72 h): > 5000 µM

Compound: Nc1nc(=O)n([C@H]2C[C@H](O)[C@@H](CO)O2)cc1F [5F-2′dCtd, 5-Fluoro-2′-deoxycytidine]
- EC50 ([1]; read-out: EC50): 17.3 ± 1.8 µM
- EC50 (Lmaj5FURes): 17 ± 1.8 µM
- RF (Resistance Factor = IC50 (resistant clone)/IC50 (WT)) (Lmaj5FURes): 0.4
- EC50 (Lmaj5F2′dURes): 3870 ± 621 µM
- RF (Resistance Factor = IC50 (resistant clone)/IC50 (WT)) (Lmaj5F2′dURes): 101
- EC50 ([2]; read-out: EC50): 38 ± 1.7 µM
- EC50 (Lmex5FURes): 24 ± 0.9 µM
- RF (Resistance Factor = IC50 (resistant clone)/IC50 (WT)) (Lmex5FURes): 1.4
- EC50 (Lmex5F2′dURes): > 5000 µM
- RF (Resistance Factor = IC50 (resistant clone)/IC50 (WT)) (Lmex5F2′dURes): >290

Compound: O=c1ccn([C@@H]2O[C@H](CF)[C@@H](O)[C@H]2O)c(=O)[nH]1 [5′-deoxy-5′-fluorouridine]
- EC50 [1]: > 5000 µM
- EC50 ([2]; 72 h): > 5000 µM

Compound: C[C@H]1O[C@@H](n2ccc(=O)[nH]c2=O)[C@H](O)[C@@H]1O [5′dUrd, 5′-deoxyuridine]
- EC50 ([1]; read-out: EC50): 461 ± 80 µM
- EC50 ([2]; read-out: EC50): 525 ± 46 µM

Compound: O=c1cn[nH]c(=O)[nH]1 [6-azauracil]
- EC50 [1]: > 5000 µM
- EC50 ([2]; 72 h): > 5000 µM

Compound: Nc1ccn([C@@H]2O[C@H](CO)[C@@H](O)[C@H]2O)c(=O)n1 [cytidine]
- Ki (LmexNT1 [3]; inhibition of 1 μM [3H]-thymidine uptake, 20 s): 82 ± 5 µM
- Ki (LmexNT1 [4]; inhibition of 0.25 μM [3H]-uridine uptake in the presence of 1 mM uracil): 78.6 ± 15.1 µM
- Ki (LmexNT1 [5]): 149 ± 18 µM
- Ki (LmajNT1; [6]): 1150 ± 108 µM

Compound: Nc1cc[nH]c(=O)n1 [cytosine]
- Ki (LmexUU1; [7]): > 5000 µM

Compound: N=C(N)c1ccc(/N=N/Nc2ccc(C(=N)N)cc2)cc1 [diminazene]
- EC50 ([1]; read-out: EC50): 7.4 ± 0.3 µM
- EC50 (Lmaj5FURes): 10 ± 1.6 µM
- RF (Resistance Factor = IC50 (resistant clone)/IC50 (WT)) (Lmaj5FURes): 1.02
- EC50 (Lmaj5F2′dURes): 24.6 ± 1.5 µM
- RF (Resistance Factor = IC50 (resistant clone)/IC50 (WT)) (Lmaj5F2′dURes): 2.5
- EC50 ([2]; read-out: EC50): 9.8 ± 0.3 µM
- EC50 (Lmex5FURes): 7.2 ± 1.4 µM
- RF (Resistance Factor = IC50 (resistant clone)/IC50 (WT)) (Lmex5FURes): 0.97
- EC50 (Lmex5F2′dURes): 13.9 ± 1.9 µM
- RF (Resistance Factor = IC50 (resistant clone)/IC50 (WT)) (Lmex5F2′dURes): 1.8

Compound: O=c1[nH]cnc2nc[nH]c12 [hypoxanthine]
- Ki (LmexNT1 [3]): > 1000 µM
- Ki (LmexNT1 [4]): > 1000 µM
- Ki (LmexUU1): > 500 µM

Compound: N=C(N)c1ccc(OCCCCCOc2ccc(C(=N)N)cc2)cc1 [pentamidine]
- EC50 ([1]; read-out: EC50): 4.6 ± 0.2 µM
- EC50 ([2]; read-out: EC50): 3.3 ± 0.2 µM
- EC50 (Lmex5FURes): 5 ± 0.6 µM
- RF (Resistance Factor = IC50 (resistant clone)/IC50 (WT)) (Lmex5FURes): 1.1

Compound: Cc1c[nH]c(=O)[nH]c1=O [thymine]
- Ki (LmexUU1; [7]): 560 ± 190 µM
- Ki (LmajNT1; [6]): > 1000 µM
